Measurements reported in PMC6616570, “Discovery of novel oestrogen receptor α agonists and antagonists by screening a revisited privileged structure moiety for nuclear receptors” (Scientific Reports, 2019).
Entries after “also recorded” stand apart in the source; their conditions may differ. Where two headings read alike, the source gives them in different places.

What was measured:
[1] = target: T1, ERα (Homo sapiens, UniProt P03372); assay: Competitive binding assay using [3H]E2 against GST-fused ERα LBD
T1 construct: the ERα LBD was amplified by polymerase chain reaction and subcloned into the pGEX-6P-1 vector; made in house; host or cells: Escherichia coli BL21α
T1 sequence (P03372 311-547 limits assumed): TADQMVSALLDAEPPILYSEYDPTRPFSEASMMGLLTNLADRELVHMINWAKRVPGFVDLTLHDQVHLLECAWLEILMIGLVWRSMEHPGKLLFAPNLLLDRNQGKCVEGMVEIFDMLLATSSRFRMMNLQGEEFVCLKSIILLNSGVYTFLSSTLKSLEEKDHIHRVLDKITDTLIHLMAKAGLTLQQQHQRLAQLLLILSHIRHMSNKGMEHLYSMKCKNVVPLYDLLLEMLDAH
Description: The ERα cDNA clone was purchased from OriGene Technologies, Inc. (Rockville, MD, USA). For construction of the expression plasmid, the ERα LBD was amplified by polymerase chain reaction and subcloned into the pGEX-6P-1 vector (GE Healthcare, Chicago, IL, USA) to obtain as a GST-fused protein. The GST-fused ERα -LBD was expressed in Escherichia coli BL21α cells and purified using Glutathione-Sepharose 4B (GE Healthcare), followed by gel filtration on a Sephadex G-10 column (GE Healthcare).
We performed the radioligand binding assays for ERα according to previously reported by method. […] GST-ERα-LBD (20 ng) was incubated with a series of [^3H]E2 (0.1–30 nM) in a total volume of 100 μL of binding buffer [10% glycerol, 10 mM Tris, 1 mM EGTA, 1 mM EDTA, 1 mM sodium vanadate (V), 0.5 mM phenylmethylsulfonyl fluoride, and 0.2 mM leupeptin (pH 7.4)] for 2 h at 20 °C in order to estimate total binding. Specific binding was calculated by subtracting the nonspecific binding determined by addition of 10 μM non-radiolabeled E2 to another set of working solutions from the observed total binding. After incubation, free radioligand was removed by addition and incubation of 100 μL 0.4% dextran-coated charcoal (Sigma-Aldrich) in phosphate-buffered saline (PBS; pH 7.4) on ice for 10 min. After centrifugation for 10 min at 15,000 rpm, the radioactivity of each supernatant was measured using a liquid scintillation counter (LS6500; Beckman Coulter, Fullerton, CA, USA). The data of the calculated specific binding of [^3H]E2 were assessed by Scatchard plot analysis.
The binding affinities of the test compounds were evaluated by competitive binding assays. Each chemical was dissolved in DMSO to prepare a 1.0-mM stock solution, followed by subsequent incubation of serial dilutions (1 pM to 10 μM) with GST- ERα-LBD (20 ng) and [^3H]E2 (5 nM, final) for 2 hrs at 20 °C to assess their ability to hinder the binding of [^3H]E2. Free radioligand was absorbed by 0.4% dextran-coated charcoal for the saturation binding assay and removed by the vacuum filtration system using a 96-well filtration plate (MultiScreenHTS HV; […] pore size; Merck KGaA, Darmstadt, Germany). The radioactivities of the eluents were measured using a TopCount NXT system (PerkinElmer) for 3 min/well.

[2] = target: T2, ERα (Homo sapiens, UniProt P03372); assay: Luciferase-reporter assay for agonist activity in transiently transfected HeLa cells; type: cell-based; conditions: for ERα agonist / transcriptional activity (in words): reporter-gene assay, 0.1-10 μM
T2 construct: expressed in transfected cells; host or cells: HeLa cells
T2 sequence (P03372 1-595): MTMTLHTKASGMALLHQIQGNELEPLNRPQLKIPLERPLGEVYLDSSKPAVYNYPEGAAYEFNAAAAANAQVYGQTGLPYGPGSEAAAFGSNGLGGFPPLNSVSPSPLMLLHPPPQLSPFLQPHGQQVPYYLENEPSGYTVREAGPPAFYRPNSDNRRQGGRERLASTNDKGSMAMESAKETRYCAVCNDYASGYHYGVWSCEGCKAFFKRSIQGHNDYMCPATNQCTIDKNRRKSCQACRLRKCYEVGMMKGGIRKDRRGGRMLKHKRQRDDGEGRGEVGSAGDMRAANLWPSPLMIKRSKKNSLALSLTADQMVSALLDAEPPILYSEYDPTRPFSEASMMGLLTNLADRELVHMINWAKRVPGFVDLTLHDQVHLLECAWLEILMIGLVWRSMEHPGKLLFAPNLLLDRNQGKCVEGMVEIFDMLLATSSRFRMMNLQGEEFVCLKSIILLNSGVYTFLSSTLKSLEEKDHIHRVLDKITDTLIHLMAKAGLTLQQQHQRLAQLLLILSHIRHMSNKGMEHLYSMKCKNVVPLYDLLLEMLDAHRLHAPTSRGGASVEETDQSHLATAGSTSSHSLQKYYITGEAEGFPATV
Procedure: HeLa cells were maintained in Eagle’s minimum essential medium (MEM; Nissui Pharmaceutical Co., Ltd, Tokyo, Japan) supplemented with 10% (v/v) foetal bovine serum treated with dextran-coated charcoal at 37 °C under 5% CO2. To analyse the agonist activity, HeLa cells were incubated at a density of 5 × 10^5 cells per 60-mm dish for 24 h, followed by transfection of 3 μg of the reporter plasmid (3 × ERE/pGL4.23) and 1 μg of the ERα expression plasmid (ERα/pcDNA3.1) using Lipofectamine LTX reagent (Thermo Fisher Scientific, Waltham, MA, USA) according to the manufacturer’s instructions. After 24 h, cells were harvested, suspended in Eagle’s MEM, and seeded into 96-well plates at 5 × 10^4 cells/well, followed by treatment with a series of the test compounds diluted with 1% bovine serum albumin (BSA)/PBS (v/v) to prepare different concentrations (0–10 μM). After a 24-h incubation, luciferase activity was measured using a Luciferase Assay system (Promega, Madison, WI, USA) according to the manufacturer’s instructions. […] Cells treated only with 1% BSA/PBS were used as a vehicle control. Each assay was performed in triplicate and repeated at least three times.

[3] = target: T2, ERα; assay: Luciferase-reporter assay for antagonist activity in the presence of E2, HeLa cells; type: cell-based; conditions: for ERα antagonist activity against E2-induced transcription (in words): 1 pM to 10 μM compound in a solution of E2 (1 nM); for reduction of E2-mediated ERα activity: highest concentration, 10 μM
Procedure: HeLa cells were maintained in Eagle’s minimum essential medium (MEM; Nissui Pharmaceutical Co., Ltd, Tokyo, Japan) supplemented with 10% (v/v) foetal bovine serum treated with dextran-coated charcoal at 37 °C under 5% CO2. To analyse the agonist activity, HeLa cells were incubated at a density of 5 × 10^5 cells per 60-mm dish for 24 h, followed by transfection of 3 μg of the reporter plasmid (3 × ERE/pGL4.23) and 1 μg of the ERα expression plasmid (ERα/pcDNA3.1) using Lipofectamine LTX reagent (Thermo Fisher Scientific, Waltham, MA, USA) according to the manufacturer’s instructions. After 24 h, cells were harvested, suspended in Eagle’s MEM, and seeded into 96-well plates at 5 × 10^4 cells/well, followed by treatment with a series of the test compounds diluted with 1% bovine serum albumin (BSA)/PBS (v/v) to prepare different concentrations (0–10 μM). After a 24-h incubation, luciferase activity was measured using a Luciferase Assay system (Promega, Madison, WI, USA) according to the manufacturer’s instructions. Briefly, cells were lysed using reporter lysis buffer (Promega), and luminescence was measured using a Wallace 1420 ARVOsx multilabel counter (PerkinElmer). Cells treated only with 1% BSA/PBS were used as a vehicle control. Each assay was performed in triplicate and repeated at least three times.
To evaluate antagonistic activity, we examined serial concentrations of test compounds (0–10 μM, final) in the presence of 1 nM or 10 nM concentrations of E2, which normally induces basal levels of ERα-related transcriptional activity.

[4] = contaminant of industrial BPA; cited from earlier work
[5] = [3H][…] radioligand (5 nM), GST-ERα-LBD, mean ± SE, read-out: Binding affinity (IC50)
[6] = [3H]17β-oestradiol radioligand (5 nM), GST-ERα-LBD, mean ± SE, read-out: Binding affinity (IC50)

SMILES: Oc1ccc(C(=C(Cl)Cl)c2ccc(O)cc2)cc1 [compound 1, bisphenol C]
- IC50 [1, 5]: 2.81 ± 0.61 nM
- transcriptional activity relative to that of E2 ([2]; ERα reporter-gene assay): ~ 60%
- ERα agonist / transcriptional activity (in words) [2]: apparent agonistic activity
- ERα antagonist activity against E2-induced transcription (in words) [3]: did not observe any antagonistic activity

SMILES: CC(C)CC(C)(c1ccc(O)cc1)c1ccc(O)cc1 [compound 2, 4,4′-(1,3-dimethylbuthylidene)bisphenol]
- estrogenic activity higher than laboratory grade BPA [4]: 8 fold

SMILES: CC(C)(c1ccc(O)cc1)c1cccc(C(C)(C)c2ccc(O)cc2)c1 [compound 7, bisphenol M]
- IC50 [1]: 56.8 ± 11.7 nM
- ERα agonist / transcriptional activity (in words) [2]: weak transcriptional activity
- ERα agonist / transcriptional activity (in words) ([2]; listed as BPM): almost no ERα-specific transcriptional activity
- ERα antagonist activity against E2-induced transcription (in words) [3]: inhibited the agonist activity of 1 nM E2 in a dose-dependent manner
- reduction of E2-mediated ERα activity [3]: up to 90%

SMILES: Oc1ccc(C2(c3ccc(O)cc3)CCCCC2)cc1 [compound 8, bisphenol Z]
- IC50 [1, 5]: 56.9 ± 0.6 nM
- ERα agonist / transcriptional activity (in words) [2]: apparent agonistic activity

SMILES: CC(C)(c1ccc(O)cc1)c1ccc(C(C)(c2ccc(O)cc2)c2ccc(O)cc2)cc1 [compound 10, α,α,α′-tris(4-hydroxyphenyl)-1-ethyl-4-isopropylbenzene]
- IC50 [1, 6]: 61.7 ± 10.4 nM
- ERα agonist / transcriptional activity (in words) [2]: weak transcriptional activity; also recorded: almost no ERα-specific transcriptional activity
- ERα antagonist activity against E2-induced transcription (in words) [3]: inhibited the agonist activity of 1 nM E2 in a dose-dependent manner
- reduction of E2-mediated ERα activity [3]: up to 90%

SMILES: CC(C)(c1ccc(O)cc1)c1ccc(C(C)(C)c2ccc(O)cc2)cc1 [compound 11, bisphenol P]
- IC50 [1, 6]: 176 ± 35 nM
- ERα agonist / transcriptional activity (in words) [2]: weak transcriptional activity
- ERα agonist / transcriptional activity (in words) ([2]; listed as BPP): almost no ERα-specific transcriptional activity
- ERα antagonist activity against E2-induced transcription (in words) [3]: inhibited the agonist activity of 1 nM E2 in a dose-dependent manner
- reduction of E2-mediated ERα activity [3]: up to 90%

SMILES: CCC(C)(c1ccc(O)cc1)c1ccc(O)cc1 [compound 12, bisphenol B]
- IC50 [1, 6]: 195 ± 44 nM
- ERα agonist / transcriptional activity (in words) [2]: apparent agonistic activity

SMILES: CC(c1ccccc1)(c1ccc(O)cc1)c1ccc(O)cc1 [compound 13, bisphenol AP]
- IC50 [1, 6]: 259 ± 41 nM
- ERα agonist / transcriptional activity (in words) [2]: apparent agonistic activity

SMILES: Nc1cc(C(c2ccc(O)c(N)c2)(C(F)(F)F)C(F)(F)F)ccc1O [compound 15, 2,2-bis(3-amino-4-hydroxyphenyl)hexafluoropropane]
- IC50 [1, 6]: 334 ± 112 nM
- ERα agonist / transcriptional activity (in words) [2]: apparent agonistic activity

SMILES: CC1(C)CC2(CC(C)(C)c3ccc(O)cc3O2)Oc2cc(O)ccc21 [compound 16, spirobicromane]
- IC50 [1, 6]: 366 ± 20 nM
- ERα agonist / transcriptional activity (in words) [2]: weak transcriptional activity
- ERα antagonist activity against E2-induced transcription (in words) [3]: inhibited the agonist activity of 1 nM E2 in a dose-dependent manner
- reduction of E2-mediated ERα activity [3]: up to 90%

SMILES: Cc1cc(C(C)(C)c2ccc(C(C)(C)c3cc(C)c(O)c(C)c3)cc2)cc(C)c1O [compound 18, α,α′-bis(4-hydroxy-3,5-dimethylphenyl)-1,4-diisopropylbenzene]
- IC50 [1, 6]: 733 ± 628 nM
- ERα agonist / transcriptional activity (in words) [2]: weak transcriptional activity
- ERα antagonist activity against E2-induced transcription (in words) [3]: inhibited the agonist activity of 1 nM E2 in a dose-dependent manner
- reduction of E2-mediated ERα activity [3]: up to 90%

SMILES: Nc1ccc(Oc2ccc(C(c3ccc(Oc4ccc(N)cc4)cc3)(C(F)(F)F)C(F)(F)F)cc2)cc1 [compound 19, 2,2-bis[4-(4-aminophenoxy)phenyl]hexafluoropropane]
- IC50 [1, 6]: 1030 ± 375 nM
- ERα agonist / transcriptional activity (in words) [2]: weak transcriptional activity

SMILES: Oc1ccc(C2(c3ccc(O)cc3)c3ccccc3-c3ccccc32)cc1 [compound 22, 9,9-bis(4-hydroxyphenyl)fluorine]
- IC50 [1, 6]: 2230 ± 202 nM
- binding to the ERα LBD (in words) ([1]; competitive binding assay using [3H]E2): directly binds to the ERα LBD
- ERα agonist / transcriptional activity (in words) [2]: weak transcriptional activity
